# Laboratory results from USRE48461E1, “Modulation of androgen receptor expression” (Ionis Pharmaceuticals, Inc., priority 2012, dated 2021).
# Oligonucleotides are written 5' to 3', each unit as a sugar letter and its base; * is a phosphorothioate linkage, no mark a phosphodiester; rarer units and linkages stand in square brackets, end groups in braces. Plain capitals give the bases only. e = 2'-O-(2-methoxyethyl) (MOE); k = constrained ethyl (cEt); [5mC] = 5-methylcytosine; d = 2'-deoxy (DNA)
# Legend:
# AR mRNA [1] = assay: Antisense inhibition of human AR in HuVEC cells, single concentration (electroporation, qRT-PCR RTS3559); type: cell-based
# Method in brief: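 HuVEC cells electroporated with antisense oligonucleotides at a single concentration. AR mRNA quantified by qRT-PCR using human primer-probe set RTS3559 and normalised to total RNA content by RIBOGREEN.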
# AR mRNA [2] = assay: Dose-dependent antisense inhibition of human AR in HuVEC cells (electroporation, qRT-PCR RTS3559, IC50); type: cell-based; conditions: HuVEC
# Method in brief: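 HuVEC cells dosed with antisense oligonucleotides by electroporation and treated approximately 16 hours. AR mRNA quantified by real-time qPCR with primer probe set RTS3559 and normalised to total RNA by RIBOGREEN; IC50 from dose-response.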
# AR mRNA [3] = assay: AR mRNA in LnCaP cells by free uptake (hAR_LTS00943); type: cell-based, human; conditions: 24 hrs
# Method: Cells were plated at a concentration of 4,000 cells/well in 96-well plates. ISIS oligonucleotides, specified in Table 68, were added individually at 0.02 μM, 0.10 μM, 0.50 μM, 2.50 μM, or 10.00 μM. After an incubation period of 24 hrs, mRNA levels were measured using primer probe set hAR_LTS00943.
# AR mRNA [4] = assay: AR mRNA in liver, heart, skeletal muscle, kidney, prostate of cynomolgus monkeys; type: in vivo; conditions: cynomolgus monkey, 40 mg/kg subcutaneously; for Percent Inhibition of AR mRNA relative to the PBS control, Heart: weeks 1 to 6, Heart; for Percent Inhibition of AR mRNA relative to the PBS control, Kidney: weeks 1 to 6, Kidney; for Percent Inhibition of AR mRNA relative to the PBS control, Liver: weeks 1 to 6, Liver; for Percent Inhibition of AR mRNA relative to the PBS control, Prostate: weeks 1 to 6, Prostate; for Percent Inhibition of AR mRNA relative to the PBS control, Skeletal Muscle: weeks 1 to 6, Skeletal Muscle
# Method: Cynomolgus monkeys were treated with ISIS antisense oligonucleotides selected from studies described above. Antisense oligonucleotide efficacy and tolerability were evaluated. The human antisense oligonucleotides tested are cross-reactive with the rhesus genomic sequence (GENBANK Accession No. NW_001218131.1 truncated from nucleotides 134001 to 308000 and designated herein as SEQ ID NO: 189). The target start site and target region of each oligonucleotide to SEQ ID NO: 189, as well as the details of their chemistry and sequence, is presented in Table 133.
# RNA was extracted from liver, heart, skeletal muscle, kidney, and prostate tissues for real-time PCR analysis of AR using primer probe set RTS3559. The results were normalized to RIBOGREEN®. Results are presented as percent inhibition of AR mRNA, relative to PBS control.
# AR mRNA [5] = assay: AR mRNA levels in LMR20 cells (with/without DHT or R1881); type: cell-based, human; conditions: LMR20 cells; for AR mRNA levels (% baseline value) after treatment with DHT: DHT 10 nM 72 hrs; for AR mRNA levels (% baseline value) after treatment with R1881: R1881 10 nM 72 hrs; for AR mRNA levels (% baseline value) of cells without AR agonist treatment: no AR agonist
# Method: (§1) LMR20 cells were plated at 1,500 cells per well in phenol red-free medium with CSS.
# [6] = test system: prostate-specific antigen (PSA) mRNA; assay: PSA mRNA levels in LMR20 cells; type: cell-based, human; conditions: LMR20 cells; for PSA mRNA levels (% baseline value) after treatment with DHT: DHT 10 nM 72 hrs; for PSA mRNA levels (% baseline value) after treatment with R1881: R1881 10 nM 72 hrs; for PSA mRNA levels (% baseline value) of cells without AR agonist treatment: no AR agonist
# Method: LMR20 cells were plated at 1,500 cells per well in phenol red-free medium with CSS. […] Results are presented in Tables 43-45 as mRNA levels expressed as a percentage of the baseline values. mRNA levels may be lowered or increased after treatment.
# TMPRSS2 mRNA = TMPRSS2 mRNA levels in LMR20 cells; type: cell-based, human; conditions: LMR20 cells; for TMPRSS2 mRNA levels (% baseline value) after treatment with DHT: DHT 10 nM 72 hrs; for TMPRSS2 mRNA levels (% baseline value) after treatment with R1881: R1881 10 nM 72 hrs; for TMPRSS2 mRNA levels (% baseline value) of cells without AR agonist treatment: no AR agonist
# Method: as §1
# [7] = Table 33, electroporation, approximately 16 hours
# [8] = Table 35, electroporation, approximately 16 hours
substance,measurement,setting,value
583918 (kA*kG*kT*d[5mC]*dG*d[5mC]*dG*dA*d[5mC]*dT*d[5mC]*dT*dG*kG*kT*kA) [compound 583918],% inhibition,"AR mRNA [1]; Table 21, 500 nM oligonucleotide, electroporation, approximately 24 hours, relative to untreated control",47%
same,"percent inhibition of AR, 46.9 nM",AR mRNA [2]; [7],16%
same,"percent inhibition of AR, 187.5 nM",AR mRNA [2]; [7],47%
same,"percent inhibition of AR, 750.0 nM",AR mRNA [2]; [7],68%
same,"percent inhibition of AR, 3000.0 nM",AR mRNA [2]; [7],86%
same,IC50,AR mRNA [2]; [7],0.3 µM
same,Percent inhibition of AR mRNA,AR mRNA [3]; 0.02 μM,8%
same,Percent inhibition of AR mRNA,AR mRNA [3]; 0.1 μM,0%
same,Percent inhibition of AR mRNA,AR mRNA [3]; 0.5 μM,0%
same,Percent inhibition of AR mRNA,AR mRNA [3]; 10 μM,13%
same,"Percent Inhibition of AR mRNA relative to the PBS control, Heart",AR mRNA [4],76%
same,"Percent Inhibition of AR mRNA relative to the PBS control, Kidney",AR mRNA [4],73%
same,"Percent Inhibition of AR mRNA relative to the PBS control, Liver",AR mRNA [4],88%
same,"Percent Inhibition of AR mRNA relative to the PBS control, Prostate",AR mRNA [4],58%
same,"Percent Inhibition of AR mRNA relative to the PBS control, Skeletal Muscle",AR mRNA [4],74%
584163 (kG*kA*kA*d[5mC]*dA*dT*dT*dA*dT*dT*dA*dG*dG*k[5mC]*kT*kA) [compound 584163],% inhibition,"AR mRNA [1]; Table 24, 1,000 nM oligonucleotide, electroporation, approximately 24 hours, relative to untreated control",81%
same,"percent inhibition of AR, 46.9 nM",AR mRNA [2]; [8],19%
same,"percent inhibition of AR, 187.5 nM",AR mRNA [2]; [8],37%
same,"percent inhibition of AR, 750.0 nM",AR mRNA [2]; [8],74%
same,"percent inhibition of AR, 3000.0 nM",AR mRNA [2]; [8],90%
same,IC50,AR mRNA [2]; [8],0.25 µM
same,Percent inhibition of AR mRNA,AR mRNA [3]; 0.02 μM,0%
same,Percent inhibition of AR mRNA,AR mRNA [3]; 0.1 μM,0%
same,Percent inhibition of AR mRNA,AR mRNA [3]; 0.5 μM,19%
same,Percent inhibition of AR mRNA,AR mRNA [3]; 10 μM,70%
same,"Percent Inhibition of AR mRNA relative to the PBS control, Heart",AR mRNA [4],53%
same,"Percent Inhibition of AR mRNA relative to the PBS control, Kidney",AR mRNA [4],90%
same,"Percent Inhibition of AR mRNA relative to the PBS control, Liver",AR mRNA [4],98%
same,"Percent Inhibition of AR mRNA relative to the PBS control, Prostate",AR mRNA [4],58%
same,"Percent Inhibition of AR mRNA relative to the PBS control, Skeletal Muscle",AR mRNA [4],73%
569236 (antisense eT*kG*kA*kT*dT*dT*dA*dA*dT*dG*dG*kT*kT*kG*e[5mC]*eA) [compound 569236],% inhibition,"AR mRNA [1]; 250 nM ASO, ~24 h, Table 7",66%
same,percent inhibition of AR,"AR mRNA [2]; 31.25 nM, ~16 h, Table 8",17%
same,percent inhibition of AR,"AR mRNA [2]; 62.5 nM, ~16 h, Table 8",39%
same,percent inhibition of AR,"AR mRNA [2]; 62.5 nM, ~16 h, Table 10",4%
same,percent inhibition of AR,"AR mRNA [2]; 125.0 nM, ~16 h, Table 8",54%
same,percent inhibition of AR,"AR mRNA [2]; 125.0 nM, ~16 h, Table 10",35%
same,percent inhibition of AR,"AR mRNA [2]; 500.0 nM, ~16 h, Table 8",84%
same,percent inhibition of AR,"AR mRNA [2]; 500.0 nM, ~16 h, Table 10",68%
same,percent inhibition of AR,"AR mRNA [2]; 1000.0 nM, ~16 h, Table 8",92%
same,percent inhibition of AR,"AR mRNA [2]; 1000.0 nM, ~16 h, Table 10",88%
same,IC50,"AR mRNA [2]; ~16 h, Table 8",0.11 µM
same,IC50,"AR mRNA [2]; ~16 h, Table 10",0.252 µM
same,AR mRNA levels (% baseline value) after treatment with DHT,AR mRNA [5]; ASO 0.04 μM,94 % baseline value
same,AR mRNA levels (% baseline value) after treatment with DHT,AR mRNA [5]; ASO 0.20 μM,77 % baseline value
same,AR mRNA levels (% baseline value) after treatment with DHT,AR mRNA [5]; ASO 1.0 μM,44 % baseline value
same,AR mRNA levels (% baseline value) after treatment with DHT,AR mRNA [5]; ASO 5.0 μM,34 % baseline value
same,AR mRNA levels (% baseline value) after treatment with R1881,AR mRNA [5]; ASO 0.04 μM,89 % baseline value
same,AR mRNA levels (% baseline value) after treatment with R1881,AR mRNA [5]; ASO 0.20 μM,80 % baseline value
same,AR mRNA levels (% baseline value) after treatment with R1881,AR mRNA [5]; ASO 1.0 μM,44 % baseline value
same,AR mRNA levels (% baseline value) after treatment with R1881,AR mRNA [5]; ASO 5.0 μM,37 % baseline value
same,AR mRNA levels (% baseline value) of cells without AR agonist treatment,AR mRNA [5]; ASO 0.04 μM,104 % baseline value
same,AR mRNA levels (% baseline value) of cells without AR agonist treatment,AR mRNA [5]; ASO 0.20 μM,87 % baseline value
same,AR mRNA levels (% baseline value) of cells without AR agonist treatment,AR mRNA [5]; ASO 1.0 μM,42 % baseline value
same,AR mRNA levels (% baseline value) of cells without AR agonist treatment,AR mRNA [5]; ASO 5.0 μM,27 % baseline value
same,PSA mRNA levels (% baseline value) after treatment with DHT,[6]; ASO 0.04 μM,108 % baseline value
same,PSA mRNA levels (% baseline value) after treatment with DHT,[6]; ASO 0.20 μM,79 % baseline value
same,PSA mRNA levels (% baseline value) after treatment with DHT,[6]; ASO 1.0 μM,46 % baseline value
same,PSA mRNA levels (% baseline value) after treatment with DHT,[6]; ASO 5.0 μM,46 % baseline value
same,PSA mRNA levels (% baseline value) after treatment with R1881,[6]; ASO 0.04 μM,90 % baseline value
same,PSA mRNA levels (% baseline value) after treatment with R1881,[6]; ASO 0.20 μM,90 % baseline value
same,PSA mRNA levels (% baseline value) after treatment with R1881,[6]; ASO 1.0 μM,57 % baseline value
same,PSA mRNA levels (% baseline value) after treatment with R1881,[6]; ASO 5.0 μM,41 % baseline value
same,PSA mRNA levels (% baseline value) of cells without AR agonist treatment,[6]; ASO 0.04 μM,122 % baseline value
same,PSA mRNA levels (% baseline value) of cells without AR agonist treatment,[6]; ASO 0.20 μM,90 % baseline value
same,PSA mRNA levels (% baseline value) of cells without AR agonist treatment,[6]; ASO 1.0 μM,78 % baseline value
same,PSA mRNA levels (% baseline value) of cells without AR agonist treatment,[6]; ASO 5.0 μM,73 % baseline value
same,TMPRSS2 mRNA levels (% baseline value) after treatment with DHT,TMPRSS2 mRNA; ASO 0.04 μM,113 % baseline value
same,TMPRSS2 mRNA levels (% baseline value) after treatment with DHT,TMPRSS2 mRNA; ASO 0.20 μM,123 % baseline value
same,TMPRSS2 mRNA levels (% baseline value) after treatment with DHT,TMPRSS2 mRNA; ASO 1.0 μM,111 % baseline value
same,TMPRSS2 mRNA levels (% baseline value) after treatment with DHT,TMPRSS2 mRNA; ASO 5.0 μM,110 % baseline value
same,TMPRSS2 mRNA levels (% baseline value) after treatment with R1881,TMPRSS2 mRNA; ASO 0.04 μM,126 % baseline value
same,TMPRSS2 mRNA levels (% baseline value) after treatment with R1881,TMPRSS2 mRNA; ASO 0.20 μM,131 % baseline value
same,TMPRSS2 mRNA levels (% baseline value) after treatment with R1881,TMPRSS2 mRNA; ASO 1.0 μM,98 % baseline value
same,TMPRSS2 mRNA levels (% baseline value) after treatment with R1881,TMPRSS2 mRNA; ASO 5.0 μM,95 % baseline value
same,TMPRSS2 mRNA levels (% baseline value) of cells without AR agonist treatment,TMPRSS2 mRNA; ASO 0.04 μM,96 % baseline value
same,TMPRSS2 mRNA levels (% baseline value) of cells without AR agonist treatment,TMPRSS2 mRNA; ASO 0.20 μM,81 % baseline value
same,TMPRSS2 mRNA levels (% baseline value) of cells without AR agonist treatment,TMPRSS2 mRNA; ASO 1.0 μM,59 % baseline value
same,TMPRSS2 mRNA levels (% baseline value) of cells without AR agonist treatment,TMPRSS2 mRNA; ASO 5.0 μM,48 % baseline value
same,Percent inhibition of AR mRNA,AR mRNA [3]; 0.02 μM,3%
same,Percent inhibition of AR mRNA,AR mRNA [3]; 0.1 μM,2%
same,Percent inhibition of AR mRNA,AR mRNA [3]; 0.5 μM,21%
same,Percent inhibition of AR mRNA,AR mRNA [3]; 10 μM,70%
